Values joined by “and” are separate entries in the source; they are usually repeats but may differ in a detail not shown here. Identical values can stand only once.
Experiments:
[1] = system: LPS-induced endotoxemia and sepsis; experiment: LPS-induced sepsis model, survival (UP446 study); type: in vivo, CD-1 mice
Text: This model used survival rate of animals as the end point measurement (Wang et al., 1999). Lipopolysaccharide (LPS) is an integral component of the outer membrane of gram-negative bacteria and a major contributing factor in the initiation of a generalized inflammatory process that may lead to endotoxin shock. It is a state mediated principally by macrophages/monocytes and is attributed to excessive production of several early phase cytokines such as TNF-α, IL-1, IL-6 and gamma interferon (IFN-γ) as well as a late-stage mediator, HMGB1. Following a median lethal dose of LPS (25 mg/kg) administration dissolved in phosphate-buffered saline (PBS; Lifeline, Lot #07641), animals develop endotoxemia and HMGB1 would be detected in the serum at 8 hours and reach to a peak and plateau levels from 16 to 32 hours after LPS. If untreated, mice would start to die within 24 hours. In the current study, we monitored the mice for 4 days after LPS injection. […] The following groups were included in the study:
In this model, mice were pretreated with bioflavonoid composition—UP446, illustrated in the Example 4, for a week (7 days) before lethal dose intraperitoneal injection of LPS (E. coli, 055:B5; Sigma, St. Louis, MO; Lot #081275) at 25 mg/kg with a 10 mL/kg PBS volume. Animals were observed hourly. Given the fact that sodium butyrate improved LPS-induced injury in mice through suppression of HMGB1 release, we chose this compound as a positive control for our study (Li et al., 2018).

[2] = system: LPS-induced sepsis; experiment: LPS-induced sepsis model, composition vs constituents, Colby synergy; type: in vivo, CD-1 mice
Method: On the 8th day, mice were injected intraperitoneally (i.p.) with 25 mg/kg LPS dissolved in PBS at 10 mL/kg. Mice in the UP894-II-treated group received a daily dose of UP894-II at 250 mg/kg. All mice continued to receive the treatment daily for the duration of study, which was completed on the 6th day post LPS injection. Following a median lethal dose of LPS (25 mg/kg) by i.p. administration, animals are expected to develop sepsis within a few hours. If untreated, mice would start to die within 24 hours. Animals were observed hourly. In the current study, we monitored the mice for 6 days after LPS injection.
For the blending of these plant extracts to have unexpected synergy, the observed inhibition needs to be greater than the calculated value.
The LPS-induced survival study was utilized to evaluate possible synergy or unexpected effects of extracts from Scutellaria and Acacia, when formulated together in a specific ratio, using Colby's method.

[3] = system: TNF-α; experiment: LPS-induced acute lung injury, serum TNF-α ELISA; type: in vivo, Sprague Dawley rats; details: UP446 250 mg/kg, SB 500 mg/kg
Method: The presence of TNF-α in undiluted rat serum was measured using the rat TNF-α Quantikine ELISA kit from RandD Systems (product #: RTA00) as follows: undiluted serum was added to a microplate coated with TNF-α antibody. […] The washing was repeated, and enzyme substrate was added to the plate.

[4] = system: IL-1β; experiment: LPS-induced acute lung injury, serum IL-1β ELISA; type: in vivo, Sprague Dawley rats; details: UP446 250 mg/kg, SB 500 mg/kg
Method: The presence of IL-1β in undiluted rat serum was measured using the Rat IL-1β Quantikine ELISA kit from RandD Systems (product #: RLB00) as follows: undiluted serum was added to a microplate coated with IL-1β antibody. […] The washing was repeated, and enzyme substrate was added to the plate.

[5] = system: LPS-induced acute lung injury; experiment: LPS-induced acute lung injury, lung histopathology (H&E); type: in vivo, Sprague Dawley rats; details: UP446 high dose 250 mg/kg, Sodium Butyrate 500 mg/kg
Method: The severity of lung damage as a result of intratracheal LPS was assessed using HandE-stained lung tissue. The left lobe of the lung was used for the histopathology analysis.

[6] = cumulative, LPS 25 mg/kg i.p., UP446 250, Sodium Butyrate 500 mg/kg oral, N=8
[7] = SB 500, UP894-II 250, RM405 200, RM406 50 mg/kg
[8] = SB 500, UP894-II 250, RM405 200, RM406 50 mg/kg, listed as SB
[9] = per interval, SB 500, UP894-II 250, RM405 200, RM406 50 mg/kg oral, N=13

## CCCC(=O)[O-].[Na+] [Sodium Butyrate]
[1]; 48 hours after LPS injection, UP446 250, SB 500 mg/kg
  Survival rate: half of the animals were deceased
[1]; [6]
  # of Death after LPS, 24 hr: 2
  # of Death after LPS, 32 hr: 3
  # of Death after LPS, 34 hr: 3
  # of Death after LPS, 48 hr: 4
  # of Death after LPS, 58 hr: 4
  # of Death after LPS, 72 hr: 4
  # of Death after LPS, 82 hr: 4
[2]; [7]
  Mortality rate, 0 hr: 0.00%
  Mortality rate, 24 hr post LPS: 15.38%
  Mortality rate, 36 hr post LPS: 46.15%
  Mortality rate, 48 hr post LPS: 53.85%
  Mortality rate, 60 hr post LPS: 61.54%
  Mortality rate, 72 hr post LPS: 61.54%
  Mortality rate, 96 hr post LPS: 69.23%
  Mortality rate, 120 hr post LPS: 69.23%
  Mortality rate, 144 hr post LPS (end of observation): 69.23%
  Survival rate, 0 hr: 100.0%
  Survival rate, 24 hr post LPS: 84.6%
  Survival rate, 48 hr post LPS: 46.2%
  Survival rate, 60 hr post LPS: 38.5%
  Survival rate, 96 hr post LPS: 30.8%
  Survival rate, 120 hr post LPS: 30.8%
  Survival rate, 144 hr post LPS (end of observation): 30.8%
[2]; [8]
  Survival rate, 36 hr post LPS: 53.9% and 53.8%
  Survival rate, 72 hr post LPS: 38.5%
[2]; [9]
  Number of deceased animals post LPS, 24 hours: 2
  Number of deceased animals post LPS, 36 hours: 4
  Number of deceased animals post LPS, 48 hours: 1
  Number of deceased animals post LPS, 60 hours: 1
  Number of deceased animals post LPS, 72 hours: 0
  Number of deceased animals post LPS, 96 hours: 1
  Number of deceased animals post LPS, 120 hours: 0
  Number of deceased animals post LPS, 144 hours: 0
[2]; through 144 hours post LPS, N=13
  Survived: 4
[3]
  Reduction in serum TNF-α level vs vehicle control: 67.9%
[4]
  Reduction in serum IL-1β level vs vehicle: 65.3%
[5]
  Infiltration of PMN cell, score 0-4: 2.75 ± 0.78
  Overall Lung Damage Severity, score 0-4: 3.05 ± 0.42
  Pulmonary Edema, score 0-4: 2.35 ± 0.95

From patent US20250183494A1, “Standardized Bioflavonoid Composition for Regulation of Homeostasis of Host Defense Mechanism” (priority 2021, published 2025)
